Entries after “also recorded” stand apart in the source; their conditions may differ.
Tests used:
[1] = test system: CHO cells; test: Cell surface biotinylation for cargo (FITC-Avidin) uptake, FACS; format: cell-based; conditions: CHO cells pretreated 30 minutes at 4° C. at 185 μM, then 75 pmol FITC-Avidin, one hour at 37° C.
Experimental: (§1) Biotin-HPDP (Pierce, #21341) was solubilized in DMF and diluted in PBS (pH=7.4) to a final concentration of 100 μg/ml. 500 μl of this solution (=92.6 nmol) were incubated on CHO and HeLa cells (1×10^6 cells per Well) for 30 minutes at 4° C. After washing twice with PBS, 5 μg (=75 pmol) Avidin-FITC (Sigma, #A9275) were added and cells were incubated for 1 h at 37° C. After incubation, cells were washed twice with PBS and harvested with Trypsin-EDTA (Invitrogen, #25300-054). […] 1000 cells per sample were counted.
(§2) Instead of Biotin-HPDP, also Biotin (Sigma, #B4639), Biotin-Maleimid (Sigma, #B1267) or PBS (for determination of unspecific binding of Avidin-FITC) was incubated on the cells at equimolar concentrations.

[2] = test system: HeLa cells; test: as above; format: cell-based; conditions: HeLa cells pretreated 30 minutes at 4° C. at 185 μM, then 75 pmol FITC-Avidin, one hour at 37° C.
Experimental: as §1, §2

[3] = test system: intact cells; test: Dependency of cellular and nuclear uptake on TP-substituent (chemical modification), intact cells; format: cell-based; conditions: chemically modified TP-substituent of FITC-BSA-TP
Experimental: 1.3 Modification of FITC-BSA-TP Conjugates FITC-BSA was reacted with a 10-fold excess of cystein in PBS (pH=8, He-saturated) for 3 h. Photometric determination of cleaved thiopyridone indicated complete reaction of FITC-BSA-TP to FITC-BSA-Cys. The conjugate was purified chromatographically (Sephadex G-25 superfine HR 10/10 column; Pharmacia, Uppsala, Sweden). FITC-BSA-TP was reacted in presence of 13 mM DTT for 2 h and purified by chromatography in order to obtain a FITC-BSA conjugate with free thiol-function. Determination of degree of conjugation with Ellmanns' reagent indicated complete separation of the thiopyridone moiety, which, in consequence, led to FITC-BSA-SH. The synthesized FITC-BSA-SH conjugate was further reacted with a 50-fold excess of N-ethylmaleimide for 2 h and purified by chromatography subsequently. Controlling the product for remaining thiol moieties by using Elmanns' reagent indicated a complete reaction to FITC-BSA-NEM. 1.4 Coupling of FITC and SPDP to plasmid-DNA Coupling of FITC and SPDP with plasmid-DNA was carried out by photochemical coupling using psoralenamin. Therefore, a kit from company Sima was used (PS-amine). Coupling was carried out following the manufacturers' instructions. 4 μl of reconstituted psoralenamine solution (4.83 psoralenamine) were pipetted to 100 μl solubilized DNA (μCLuc in pur. water, 200 μg/ml DNA). The resulting solution was vortexed vigorously. The solution was irradiated with UV (λ=366 nm, 6 watt, 850 μwatt/cm^2) for 45 minutes on ice. Portions of each 50 μl were purified using a G-25 Microspin column (Amersham) and, subsequently, 2 μl 1×PBS were added. To one 50 μl fraction of the purified Psoralenamin-coupled DNA 2 μl FITC-NHS solution ([…] in DMF) were added. To the other 50 μl fraction a mixture consisting of 2 μl FITC-NHS (10 mg/ml in DMF) 2 μl SPDP (10 mg/ml in EtOH) were added. The solutions were agitated for 1.5 h at room temperature. Subsequent thereto plasmid-DNA conjugates were purified repeatedly using a G-25 Microspin column (Amersham), and used for cell culture experiments. […]

[4] = test system: HepG2 cells; test: Cellular and nuclear uptake, confocal laser scanning microscopy; format: cell-based
Experimental: (§3) Corresponding cell lines were seeded in 8-chamber sample carriers (Falcon, #4108, BD Bioscience, Belgium) resulting in about 70-80% confluence next day. Cells were incubated along with inventive conjugates for 1 h at 37° C. and 5% CO2 in an incubator (c=5 μM). Subsequently thereto cells were washed twice with PBS and fixed with a solution containing 4% paraformaldehyde. The nucleoli were colored by using the fluorescence dye DAPI (0.3 μM) or propidiumiodid (3 μM) and cells were embedded (Vectashield, Vector Laboratories, Burlingame, Calif., USA). Photographs were taken using a Sony 3CCD camera having an Axiovert 135-microscope (Carl-Zeiss, Göttingen, Germany; objective: Plan-Neofluar 100×/1.3 oil). Optical transsections for laser scanning microscopy were performed using a confocal microscope having three channels (TCS 4D; Leica Inc. Deerfield, Ill.) equipped with a Plan Apo 63×/1.32 oil objective). Both fluorescence dyes FITC and propidiumiodide were irradiated at wavelengths 488 nm and 567 nm using an argon/krypton laser. 256×256 8 bit pictures were generated having an axial distance of 250 nm and a pixel size of […]. Each picture series consisted of about 20-25 pictures. Both fluorochromes were mapped sequentially in the same nucleolus layer.
Confocal laser scanning microscopy was additionally carried out (see FIG. 3), since in epifluorescence, microscopy the resulting signal assumable may be due to association of the FITC-BSA-TP conjugates with the nuclear membrane.

[5] = test system: HepG2 cells; test: Uptake of conjugates into cells, epifluorescence microscopy; format: cell-based; conditions: 1 h incubation, 5 μM, fixed with paraformaldehyde
Experimental: as §3
Therefore, HepG2 cells were incubated for 1 h with FITC-labelled BSA conjugates (5 μm) and fixed with paraformaldehyde. Results were analysed by epifluorescence microscopy (see FIG. 2). The cellular and nuclear epifluorescence photographs show an FITC signal of BSA in the left column and an FITC-BSA-TP signal in the right column. The corresponding nucleoli were colored using the fluorescent dye propidiumiodid.
Dextran constructs and modifications were prepared analogously to BSA constructs as shown above in section 2.1. As a starting material an amino-modified dextran was used having a molecular weight of 70,000 (MW). […] Analysis was carried out using epifluorescence microscopy (see FIG. 4). The corresponding nucleoli were colored using the fluorescent dye propidiumiodid.
Similar as shown in 2.1 and 2.2 IgG1 constructs were analyzed as to whether they may be transported into the cells upon TP modification. IgG1 constructs and modifications were prepared analogously to BSA and dextran constructs as shown above in sections 2.1 and 2.2. As a starting material bovine IgG was used having a molecular weight of approximately 130,000 (MW). […] Analysis was carried out using epifluorescence microscopy (see FIG. 5). The corresponding nucleoli were colored using the fluorescent dye propidiumiodid.
PEG based negatively charged liposomes were used showing distal unmodified (carboxylic moiety) or TP-modified PEG chains. The liposomes were modified with fluorescence labelled lipids. Thereafter, HepG2 cells were coincubated with fluorescence labelled liposomes and fixed at different times. In order to detect uptake by cells and nucleus, epifluorescence microscopy was carried out (see FIG. 7). The nucleoli were colored with DAPI. From top to bottom a control experiment and the results from 1, 1.5, 2.5 and 4 h incubation are shown.
Therefore, a reporter plasmid encoding the luciferase gene and having a size of 6.4 kb was TP modified and incubated with HepG2 cells for 1 h.

[6] = test system: HepG2 cells; test: Quantification of cellular and nuclear uptake by flow cytometry (FACS); format: cell-based; conditions: 1 h incubation; for nuclear uptake, nucleus associated FITC fluorescence (FACS): cell lysis with Nonidet P 40, released nucleoli; for cellular uptake (FACS): whole cells detached with trypsine
Experimental: Therefore, HepG2 cells were incubated for 1 h with FITC labelled constructs or with FITC labelled and TP-modified conjugates as used in experiments 1 to 4. After incubation cells were detached from the bottom of the cell culture plates (whole cells) by using either a trypsine containing solution or a trypsine containing solution supplemented with detergent Nonidet P 40. Detergent Nonidet P 40 leads to lysis of cytoplasm membranes and release of nucleoli. Propidiumiodid was added to trypsine buffer in order to identify the nucleoli.

[7] = test system: HepG2 cells; test: Uptake in non-fixed and lysed cells, epifluorescence microscopy; format: cell-based
Experimental: In order to exclude artifacts resulting from fixing of cells FITC-modified BSA and FITC-BSA-TP conjugates (5 μM) were incubated for 1 h with HepG2 cells. Subsequently, cells were immediately transferred in PBS or lysed with lysis buffer within 30 minutes and analyzed via epifluorescence microscopy. […] Consequently, artifacts can be excluded due to fixing of cells.
Additionally, cytoplasma membrane of HepG2 of cells was lysed with lysis buffer (20 mM HEPES, 10 mM KCl, 0.5 mM EDTA, 0.1% Triton X-100, pH7.5) subsequent to incubation. […] Consequently, FITC-BSA-TP conjugates are localized in the nucleus.

[8] = Influence of TP-modification on activity of β-galactosidase; format: biochemical
Experimental: (§4) Analogous to sections 2.1 to 2.3 above the enzyme β-galactosidase was modified with TP. […] Subsequent to modification HepG2 cells were incubated with (TP) modified β-galactosidase (5 μM) for 1 h or 24 h and then fixed in paraformaldehyde. β-galactosidase activity was visualized by using X-Gal (see FIG. 6).

[9] = test system: HepG2 cells; test: Uptake of β-galactosidase, activity visualized by X-Gal; format: cell-based; conditions: 5 μM; for cellular uptake of β-galactosidase / nuclear uptake of β-galactosidase: 1 h or 24 h
Experimental: as §4

O=C(CCCC[C@@H]1SC[C@@H]2NC(=O)N[C@@H]21)NCCCCCCNC(=O)CCSSc1ccccn1 [Biotin-HPDP, N-[6-(Biotinamido)hexyl]-3′-(2′-pyridyldithio)propionamide]
delivery of cargo (FITC-Avidin) to cells, FITC-positive cells by FACS [1]: efficiently deliver cargo molecules to cells | delivery of cargo (FITC-Avidin) to cells, FITC-positive cells by FACS [2]: efficiently deliver cargo molecules to cells

Biotin-Maleimid
delivery of cargo (FITC-Avidin) to cells, FITC-positive cells by FACS [1]: highly efficient cargo accumulation at the cellular surface | delivery of cargo (FITC-Avidin) to cells, FITC-positive cells by FACS [2]: highly efficient cargo accumulation at the cellular surface

FITC-BSA-NEM: FITC-BSA-SH reacted with excess N-ethylmaleimide, thiol blocked
cellular or nuclear uptake [3]: Neither the free sulfhydryl moiety nor the sulfhydryl moiety blocked by N-ethylmaleimide mediated cellular or nuclear uptake

FITC-BSA-SH: FITC-BSA-TP reacted with DTT, giving FITC-BSA conjugate with free thiol-function
cellular or nuclear uptake [3]: Neither the free sulfhydryl moiety nor the sulfhydryl moiety blocked by N-ethylmaleimide mediated cellular or nuclear uptake

FITC-BSA-TP: FITC-labelled BSA reacted with SPDP; thiopyridyl (PDP) conjugation degree ~9-10 per BSA
cellular uptake (localization in the cytoplasm) [4]: cellular uptake | nuclear uptake (localization in the nucleus) [4]: Uptake of BSA into the nucleus is clearly observable; also recorded: nuclear uptake of FITC-BSA-TP is observable | cellular uptake (uptake into cytoplasm) [5]: uptake of FITC-BSA-TP constructs into cytoplasm and nucleus | nuclear uptake (uptake into the nucleus) [5]: clearly observable; also recorded: uptake of FITC-BSA-TP constructs into cytoplasm and nucleus | nuclear uptake, nucleus associated FITC fluorescence (FACS) [6]: 63% | cellular uptake (FACS) [6]: 78% | cellular or nuclear uptake [3]: cellular and nuclear uptake are only observable if an intact TP-substituent is present | distribution in fixed versus non-fixed cells ([7]; 5 μM, 1 h, transferred in PBS without fixing, epifluorescence): identical in both fixed and non-fixed HepG2 cells | fluorescence signal after lysis of cytoplasma membrane ([7]; lysis buffer with 0.1% Triton X-100 after incubation): a fluorescence signal was clearly observed in the nucleus

FITC-BSA: BSA labelled with carboxyfluorescein-N-hydroxysuccinimidester, without TP modification
cellular uptake (localization in the cytoplasm) [4]: localization in the cytoplasm | nuclear uptake (localization in the nucleus) [4]: no localization of non-modified FITC-BSA in the nucleus could be observed | cellular uptake (uptake into cytoplasm) [5]: Uptake of non-modified FITC-BSA into cytoplasm of HepG2 cells could also be observed | nuclear uptake (uptake into the nucleus) [5]: no uptake of FITC-BSA into the nucleus could be observed | nuclear uptake, nucleus associated FITC fluorescence (FACS) [6]: 51% | cellular uptake (FACS) [6]: 55%

FITC-Dextran
cellular uptake (uptake into cytoplasm) [5]: Uptake of non-modified FITC-Dextran into cytoplasm of HepG2 cells could also be observed | nuclear uptake (uptake into the nucleus) [5]: no uptake of FITC-Dextran into the nucleus could be observed | nuclear uptake, nucleus associated FITC fluorescence (FACS) [6]: 7% | cellular uptake (FACS) [6]: 25%

FITC-β-galactosidase-TP: enzyme β-galactosidase modified with thiopyridyl via SPDP, conjugation degree about 1
influence of TP-modification on activity of β-galactosidase [8]: does not exhibit any influence on activity of β-galactosidase | cellular uptake of β-galactosidase [9]: uptake of β-galactosidase into cytoplasm and nucleus into many cells | nuclear uptake of β-galactosidase [9]: uptake of β-galactosidase into cytoplasm and nucleus into many cells | nuclear uptake of β-galactosidase ([9]; listed as (TP) modified β-galactosidase): clearly observable | positive cells and nucleoli ([9]; 24 h incubation): almost all cells and their nucleoli showed a positive signal

non-modified β-galactosidase: enzyme β-galactosidase without TP modification, control
cellular uptake of β-galactosidase [9]: negligible | nuclear uptake of β-galactosidase [9]: no nuclear uptake

Reference: US20080305038A1, “Transport of Nano-and Macromolecular Structures Into Cytoplasm and Nucleus of Cells” (LUDWIG-MAXIMILIANS-UNIVERSITÄT, priority 2005, published 2008)
